In patent publication US20240325335A1, “BIOLOGICALLY COMPATIBLE, BIOFILM DISRUPTING COMPOSITION AND METHODS” (priority 2023, published 2024):
“And” between values parts separate entries of the source, which are not always exact repeats. Equal values may be shown once. Starred links: 1 amine or outer side, 2 acyl side, 3 side chain; linkers in the order of their positions; H or OH if unused. Positions of bridges follow the written chain, without caps; N, C: chain ends. Non-standard residues stand in square brackets, D forms with d. Residues, ends and D or L forms follow the SMILES beside them. X1 = CC(C)CCCCCCCCC[C@H](CC(=O)[*:1])O[*:2]

Columns and labels:
[1] = tested on: cold sores; experiment: Additional clinical data and case study, cold sores; assay type: in vivo, human; details: case study patient (untreated 2-4 weeks)
[2] = at 24 hours (Zeichner, '13); cited from earlier work
[3] = tested on: C. trachomatis; details: Bergsson, '98; cited from earlier work
[4] = tested on: Pseudomonas aeruginosa biofilm; experiment: Biofilm Protocol #3, LR against 48-hour biofilm, CDC Biofilm Reactor; assay type: cell-based; details: pH 9.0, 5 hours contact time
Method: LR testing was performed with varying compositions of GML and UDA against Staph. aureus, Pseudomonas aeruginosa, E. coli., Klebsiella pneumonia, Enterococcus faecalis. All biofilm is 48 hour laboratory grown. Biofilms of the tested organisms were grown in the laboratory to become mature 48-hour old biofilm. Testing involved the evaluation of numerous composition combinations for their ability to kill biofilm-associated pathogens grown using a CDC Biofilm Reactor. The ability to kill organisms was documented as a LR of the selected organisms that was measured as CFUs (colony forming units). LRs were documented for the different composition combinations. Testing protocols initially included both FAs and esters. […] LR testing was performed with numerous combinations to determine an optimal combination. […] Additional combinations comprised the plant phenol/flavonoid quercetin, amino acids, the synthetic surfactant SLS, biosurfactants RL and MEL, and UDA. The BS SL was not tested due to poor results in the prior P #2 configurations. […] The TSC served as a buffer. […] Alkaline pH was buffered with disodium hydrogen phosphate or glycine.

[5] = tested on: P. acnes; experiment: Protocol #4 in-vitro time-kill (ASTM E2315); assay type: cell-based, Propionibacterium acnes
Method: PURPOSE: This evaluation uses an in-vitro time-kill method to quantitatively assess the bactericidal activity of […] (10) formulations when challenged with P. acnes. An in vitro time-kill evaluation was conducted with various compositions based upon the methods described in the standardized ASTM […], Standard Guide for Assessment of Antimicrobial Activity Using a Time-Kill Procedure. […] A neutralization assay was performed on all the challenge organisms. Testing at pH 4.0.

[6] = tested on: Candida albicans (ATCC MYA-2876; TPPS 1078), planktonic; experiment: P #5A planktonic antifungal testing; assay type: cell-based; details: up to 5-hour contact time, lecithin solubilizer
Method: Two sets of planktonic antifungal tests were performed, Candida and the dermatophyte Epidermophyton floccusum. Fungal strains-Candida albicans (ATCC MYA-2876; TPPS 1078) procured from the American Type Culture Collection, Manassas, VA.-Epidermophyton floccosum (ATCC 15693; TPPS 1243) procured from the American Type Culture Collection, Manassas, VA.

[7] = tested on: Herpes Simplex Virus type 1 strain HF (ATCC #VR-260); experiment: Virucidal Suspension Test (ASTM E1052-20, in-vitro time-kill); assay type: cell-based; details: pH 9.0, 30 sec
From the text: The testing was based upon ASTM E1052-20, Standard Practice to Assess the Activity of Microbicides against Viruses in Suspension. The first antiviral testing protocols involve only HSV-1 virus with both alkaline and acid pH tests.
This study was done to determine virucidal efficacy of twelve test products when challenged with Herpes Simplex Virus type 1 strain HF (ATCC #VR-260) based upon a Virucidal Suspension Test (In-Vitro Time-Kill method). The test products comprise 8 varying compositions. Calculations of the estimated virus concentrations was performed using a 50% tissue culture infectious dose (TCID50) calculation—the Quantal test (Spearman-Karber Method). The logo reductions from the initial population of the viral strain were determined following exposure to the test product for 30 seconds, 2.5 minutes and 5 minutes. Testing was conducted in one replicate. Plating was performed in four replicates. […]
This study was done to determine virucidal efficacy of 12 test products when challenged with HSV-1 strain HF (ATCC #VR-260) and Human Coronavirus strain OC43 (ZeptoMetrix #0810024CF) based upon a Virucidal Suspension Test (In-Vitro Time-Kill method). […] The log 10 reductions from the initial population of the viral strain were determined following exposure to the test product for 30 seconds, 2.5 minutes and 5 minutes. […]

[8] = aqueous
[9] = tested on: enveloped viruses; details: at 1 hour, virtually all enveloped viruses tested (Hierholzer, '16); cited from earlier work
[10] = cited from earlier work
[11] = tested on: Pseudomonas aeruginosa (ATCC #15442) biofilm; experiment: Biofilm Protocol #1, ASTM E2871 single tube method, CDC Biofilm Reactor; details: 5-minute contact time; for Log10 CFU/Coupon: treated coupons
[12] = tested on: Staphylococcus aureus (ATCC #6538) biofilm; experiment: as above; details: 5-minute contact time; for Log10 CFU/Coupon: treated coupons
[13] = tested on: Pseudomonas aeruginosa (ATCC #15442) biofilm; experiment: Biofilm Protocol #2, ASTM E2871 single tube method, 48 hour biofilm; assay type: cell-based
Method: (§1) In this round of testing, it was the intent to test numerous potential antibiofilm combinations.
(§2) EtOH (ethanol) was used as a solvent for all hydrophobic compounds: SLs, CaprAc, CURC and OCT. EtOH was used at up to 1.0% concentration.
(§3) Alkaline pH is achieved with NaOH titration.
(§4) Each was performed in one replicate for each species. A single sponsor-selected exposure duration was evaluated. The challenge organisms for this evaluation were Pseudomonas aeruginosa (ATCC #15442) and Staphylococcus aureus MRSA (ATCC #6538

[14] = tested on: Staphylococcus aureus MRSA (ATCC #6538) biofilm; experiment: as above; assay type: cell-based
Method: as §1, §2, §3, §4

[15] = tested on: Candida albicans 48 hour biofilm; experiment: P #5B-D Candida biofilm testing; assay type: cell-based; details: pH 9.0-9.5, one hour contact time
Method: Organisms: Candida albicans ([…] 1078). Date Culture Initiated: […] Culture Medium: Sabouraud dextrose agar. […] These tests were performed utilizing only UDA, due to the poor GML results in P #5A. […] […] Effect of Aspartic Acid, Cysteine, Salicylic Acid […] Prior literature indicates poor antifungal effects in alkaline pH, thus it was the intent to document whether disclosed compositions would generate an improved antifungal effect in alkaline pH.

[16] = tested on: Mycobacterium fortuitum (ATCC #6841) biofilm; experiment: Protocol #6 mycobacterial biofilm in silicone tubing; assay type: cell-based; details: pH 9.0, 5 hours contact time
Method: Two challenge microorganisms are separately evaluated: Brevundimonas diminuta (ATCC #19146) and Mycobacterium fortuitum (ATCC #6841). Biofilms of each challenge microorganism were formed in laboratory-created tubing loops consisting of a length of silicone tubing connected to a bottle of challenge microorganism in growth broth. The fluid within the tubing loop was recirculated for 10 to 14 days (Mycobacterium fortuitum) at a flowrate of 30 mL/minute while held at 36° C. (Mycobacterium fortuitum). Following completion of biofilm generation, the tubing loops were drained, and the tube lumen gently rinsed with phosphate-buffered water to remove planktonic (i.e., non-biofilm) challenge microorganisms. The tubing was then disinfected according to the manufacturer's Instructions for Use. At the completion of treatment, a portion of the silicone tubing was removed for analysis of biofilm concentration and imaging of biofilm coverage.

With Nc1nc2c(ncn2COCCO)c(=O)[nH]1 [Acyclovir, acyclovir] as the compound, how does the “time to resolution of cold sores” value [1] read?
Its value is 7 to 14 days.

For O=C(OOC(=O)c1ccccc1)c1ccccc1 [BPO, benzoyl peroxide], which “BPO absorbed through the skin” value [2] is on record?
The value was 5-9%.

Which “reduction in the infectivity titer / inactivation” value [3] does the source give for CCCCCCCC(=O)O [Caprylic acid] here?
The value was “negligible effects”.

Which “LR PA” value [4] does the source give for CCCCCCCCCCCC(=O)OCC(O)CO (centres unmarked) [GML, glycerol monolaurate] here?
Its value is 9.11.

And the “Log Reductions 0.5 (30 seconds)” value ([5]; pH 4.0, 30 seconds exposure)?
The value was 1.87.

What about the “Log Reductions 5 min” value ([5]; pH 4.0, 5 min exposure) of the same compound?
Its value is 4.81.

What about the “LRs against planktonic C. albicans” value [6] of the same compound?
Its value is 0-1.

What about the “LR 30 sec” value [7] of the same compound?
The value was > 5.5 and > 4.75 and > 5.25.

And the “maximum concentration of GML solubilized” value ([8]; EtOH 1% as solvent)?
Its value is 0.1%.

What about the GML concentration solubilized ([8]; deoiled lecithin as solubilizer) of the same compound?
Its GML concentration solubilized is no less than 20%.

And the log reduction [9]?
Its log reduction is greater than 3.

And the “reduction in the infectivity titer / inactivation” value [3]?
Its value is “negligible effects”.

What about the maximal water solubility [10] of the same compound?
Its maximal water solubility is less than 100 µg/mL.

Which results are given for CCCCCCCCN=c1ccn(CCCCCCCCCCn2ccc(=NCCCCCCCC)cc2)cc1 [I: OCT 0.1%, 1 mg/mL, octenidine]?
Log10 Reduction [11]: 1.84; Percent Reduction [11]: 98.56%; Log10 CFU/Coupon [11]: 7.31; Log10 Reduction ([12]; 1 mg/mL.): 3.28; Percent Reduction ([12]; 1 mg/mL.): 99.95%; Log10 CFU/Coupon ([12]; 1 mg/mL.): 4.93

With CCCCCCCCN=c1ccn(CCCCCCCCCCn2ccc(=NCCCCCCCC)cc2)cc1 [J: OCT 0.02%, 0.2 mg/mL, octenidine] as the compound, how does the “Log10 Reduction” value [11] read?
The value was 0.80.

What about the “Percent Reduction” value [11] of the same compound?
Its value is 84.48%.

What about the “Log10 CFU/Coupon” value [11] of the same compound?
The value was 8.35.

And the “Log10 Reduction” value ([12]; 0.2 mg/ml)?
The value was 1.87.

And the “Percent Reduction” value ([12]; 0.2 mg/ml)?
The value was 98.68%.

What about the “Log10 CFU/Coupon” value ([12]; 0.2 mg/ml) of the same compound?
The value was 6.34.

For CCCCCCCCN=c1ccn(CCCCCCCCCCn2ccc(=NCCCCCCCC)cc2)cc1 [OCT, octenidine], which “LOG REDUCTIONS Pseud” value ([13]; Acid pH 4.0) is on record?
The value was 4.9.

And the “LOG REDUCTIONS Pseud” value ([13]; Alkaline pH 8.5)?
The value was 9.11.

And the “LOG REDUCTIONS Staph” value ([14]; Acid pH 4.0)?
Its value is 1.08.

What about the “LOG REDUCTIONS Staph” value ([14]; Alkaline pH 8.5) of the same compound?
The value was 7.9.

For CCCCCCCCCCCCOS(=O)(=O)[O-].[Na+] [SLS, sodium lauryl sulfate], which “LR PA” value [4] is on record?
The value was 3.76.

What does the source list for CC(C)CCCCCCCCC[C@@H]1CC(=O)N[C@@H](CCC(=O)O)C(=O)N[C@@H](CC(C)C)C(=O)N[C@H](CC(C)C)C(=O)N[C@@H](C(C)C)C(=O)N[C@@H](CC(=O)O)C(=O)N[C@H](CC(C)C)C(=O)N[C@@H](CC(C)C)C(=O)O1 [Surfactin] (EL[dL]VD[dL]L; linker N-C via X1)?
Log10 Reduction [11]: 0.00; Percent Reduction [11]: 0.00%; Log10 CFU/Coupon [11]: 9.18; Log10 Reduction [12]: 0.00; Percent Reduction [12]: 0.00%; Log10 CFU/Coupon [12]: 8.28

Which LR [15] does the source give for C=CCCCCCCCCC(=O)O [UDA, undecylenic acid] here?
Its LR is greater than 4.

What about the LR [16] of the same compound?
Its LR is greater than 5.31.

With CCCCCCCCCC(=O)OCC(O)CO (centres unmarked) [monocaprin] as the compound, how does the “reduction in the infectivity titer / inactivation” value [3] read?
Its value is greater than 5 log 10.

For CCCCCCCC(=O)OCC(O)CO (centres unmarked) [monocaprylin], which “reduction in the infectivity titer / inactivation” value [3] is on record?
The value was “negligible effects”.

With CCCCCCCC/C=C\CCCCCCCC(=O)OCC(O)CO (centres unmarked) [monoolein] as the compound, how does the “reduction in the infectivity titer / inactivation” value [3] read?
Its value is “negligible effects”.

For CCCCCC/C=C\CCCCCCCC(=O)OCC(O)CO (centres unmarked) [monopalmitolein], which “reduction in the infectivity titer / inactivation” value [3] is on record?
The value was “negligible effects”.

Which “reduction in the infectivity titer / inactivation” value [3] does the source give for CCCCCCCCCCCCCC(=O)O [myristic acid] here?
The value was “negligible effects”.

For CCCCCCCC/C=C\CCCCCCCC(=O)O [oleic acid], which “reduction in the infectivity titer / inactivation” value [3] is on record?
Its value is “negligible effects”.

For CCCCCC/C=C\CCCCCCCC(=O)O [palmitoleic acid], which “reduction in the infectivity titer / inactivation” value [3] is on record?
The value was “negligible effects”.

With benzalkonium chloride [BAC] as the compound, how does the “LOG REDUCTIONS Pseud” value ([13]; Acid pH 4.0) read?
The value was > 6 and > 7.

What about the “LOG REDUCTIONS Staph” value ([14]; Acid pH 4.0) of the same compound?
Its value is 6.12 and > 7.
